Reference: patent publication US20110281909A1, “SUBSTITUTED QUINOLINE DERIVATIVES AS H1 RECEPTOR ANTAGONISTS” (GLAXO GROUP LIMITED, priority 2007, published 2011)
Structures can show the parent of a compound that is named as a salt.

Key:
human H1 receptor = target: T1, human H1 receptor (Homo sapiens, UniProt P35367); experiment: Histamine H1 functional antagonist assay: antagonist duration after washout; type: cell-based; details: at one or more time points after washout
T1 construct: expressed in transfected cells
Description: The human H1 receptor is cloned using known procedures described in the literature [Biochem. Biophys. Res. Commun., 201(2):894 (1994)]. Chinese hamster ovary (CHO) cells stably expressing the human H1 receptor are generated according to known procedures described in the literature [Br. J. Pharmacol., 117(6):1071 (1996)]. […] Following the 30 min antagonist incubation period, the cells are washed two or three times with 200 μl of PBS and then 100 μl Tyrodes buffer is added to each well to initiate antagonist dissociation. […] After this period, the cells are challenged with histamine in the FLIPR™ as described above. The dose ratio at each time point is used to determine the fractional H1 receptor occupancy by the following equation: fractional receptor occupancy=(DR-1)/DR. The decrease in receptor occupancy over time approximates to a straight line and is analysed by linear regression. The slope of this straight line fit is used as an index of the dissociation rate of the antagonist. The dose ratios for antagonist treated cells and for antagonist treated and washed cells at each time point are used to calculate a relative dose ratio (rel DR) which is also used as an index of antagonist duration. […]

[1] = tested on: histamine-induced congestion; experiment: Intranasal challenge method: whole body plethysmography; type: in vivo, Female Dunkin-Hartley guinea pigs; details: guinea pig, dosed intranasally at 1 mg/ml either 3 hr or 24 hr before histamine challenge
Description: Intranasal Challenge Method: Whole Body Plethysmography
Female Dunkin-Hartley guinea pigs 150-250 g are sensitised twice daily for 5 days (week 1) with ovalbumin (OVA) and aluminium hydroxide (Al(OH)3 or Alum) in physiological saline, 25 μl/nostril. Solution is made up at 20 μg/ml OVA, 180 mg/ml Alum.
Pretreatment with test compound is performed at various times prior to histamine challenge. Efficacy dose-response curves are determined 1 hr and/or 3 hr after dosing whereas duration of action may be studied up to 7 days post dose (for example, at 24 hours). Test compounds are formulated as solutions in 0.9% sterile saline or suspensions in 0.9% sterile saline/tween80. […]
After the stipulated pre-dose time has been reached, guinea pigs are re-anaesthetised with isoflurane and dosed with either 10 mM or 15 mM histamine or phosphate-buffered saline (PBS), (25 μl per nostril). […] Data are analysed using ANOVA with post-hoc Fishers LSD test (general linear models, Statistica®) and finally Hochberg adjustment. Inhibition of histamine-induced congestion is determined by statistically significant differences between the mean responses of compound pre-treated groups compared to the vehicle pre-treated, histamine-challenged group.

T1 sequence (P35367 whole entry): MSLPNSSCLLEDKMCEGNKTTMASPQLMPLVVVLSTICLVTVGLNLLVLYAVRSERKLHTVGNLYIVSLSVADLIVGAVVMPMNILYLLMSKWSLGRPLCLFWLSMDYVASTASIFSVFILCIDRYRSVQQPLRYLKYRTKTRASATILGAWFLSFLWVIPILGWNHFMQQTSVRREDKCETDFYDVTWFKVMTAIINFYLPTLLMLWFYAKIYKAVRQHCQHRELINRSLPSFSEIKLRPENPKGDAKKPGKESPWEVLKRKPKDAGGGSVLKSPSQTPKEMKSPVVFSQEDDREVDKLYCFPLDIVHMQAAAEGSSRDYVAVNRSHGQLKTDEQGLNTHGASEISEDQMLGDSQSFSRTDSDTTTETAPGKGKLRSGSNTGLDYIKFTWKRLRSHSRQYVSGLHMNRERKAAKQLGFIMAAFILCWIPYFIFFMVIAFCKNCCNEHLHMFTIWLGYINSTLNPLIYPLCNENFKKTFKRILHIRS

Structure (SMILES)	duration of action compared with azelastine in the histamine H1 functional antagonist assay (human H1 receptor)	inhibition of the response to histamine challenge (duration of action) in the intranasal challenge model [1]
CCCCc1cc(OC2CCN(CCCCNS(=O)(=O)CC(C)C)CC2)c2ncccc2c1 [Example 26, N-(4-{4-[(6-Butyl-8-quinolinyl)oxy]-1-piperidinyl}butyl)-2-methyl-1-propanesulfonamide, dihydrochloride salt]	longer duration of action than azelastine	
CN1CCCC(n2nc(Cc3ccc(Cl)cc3)c3ccccc3c2=O)CC1 (centres unmarked) [azelastine]		failed to show a similar duration of action
